The test system of data set [1] is FeCl3-induced carotid artery injury model. Nature of the data set: Carotid artery FeCl3 injury thrombosis assay. The class given is in vivo, mice. As to conditions: carvedilol 1.5 g/kg for one week; PAGln i.p. As to the method: Briefly, rhodamine 6G (100 μL; 0.5 mg/mL) was injected directly into the right jugular vein to label platelets. The left carotid artery was exposed and injured by placing a FeCl3-soaked filter paper for 1 minute. […] Time to cessation of blood flow through clot formation for all studies was determined by visual inspection by two different investigators. End points were set as cessation of blood flow for 30 seconds to 30 minutes.

The test system of another data set is MEG01 cells. The experiment in a line: Dynamic mass redistribution (DMR) in MEG01 cells. The class given is cell-based, human. As for the experimental part: (§1) Before proceeding for the experiments, cells were subjected to overnight incubation in reduced serum media opti-MEM. […] The cells were briefly centrifuged at room temperature at low speed (100 g for 10-15 sec) to allow settling down the cells at the bottom of the plate. After that, cells were allowed to temperature equilibrate for 1 h at room temperature prior to run DMR measurement. Firstly, basal DMR responses were graphed for around 15 min to obtain a baseline read that defines the zero level and also ensures the signal is stable. […] DMR response signal was recorded for 60-90 minutes post compound of interest addition.

A further data set has as its target T1, α2B ADR (Homo sapiens, UniProt P18089).
T1 construct: expressed in transfected cells
T1 sequence (P18089 1-450): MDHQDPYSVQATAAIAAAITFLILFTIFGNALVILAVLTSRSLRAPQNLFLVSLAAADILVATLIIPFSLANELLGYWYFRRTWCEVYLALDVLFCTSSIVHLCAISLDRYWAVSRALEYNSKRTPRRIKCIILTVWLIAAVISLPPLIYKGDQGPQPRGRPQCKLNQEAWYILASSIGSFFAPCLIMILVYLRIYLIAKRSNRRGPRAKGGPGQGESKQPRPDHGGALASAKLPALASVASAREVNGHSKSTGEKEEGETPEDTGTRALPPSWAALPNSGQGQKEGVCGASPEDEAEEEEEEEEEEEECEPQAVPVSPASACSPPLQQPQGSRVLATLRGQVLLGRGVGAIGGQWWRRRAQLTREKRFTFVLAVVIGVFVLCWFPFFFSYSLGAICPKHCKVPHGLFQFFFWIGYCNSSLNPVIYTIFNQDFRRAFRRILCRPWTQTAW
Nature of the data set: DMR in α2B-HEK293 (stable) cells. Type of data set: cell-based.

Data set [2] has as its system human platelet rich plasma (PRP). The experiment in a line: Platelet aggregometry in platelet rich plasma. Type of data set: cell-based. As to conditions: inhibitor 10 μM; PAGln 100 μM; ADP 2 μM. As for the experimental part:
ADP (up to 4 μM), TRAP6 (up to 10 μM) and collagen (up to 1.0 μg/mL) were used as indicated to initiate aggregation with constant stirring (600 rpm).

In another data set the target is T2, α2A ADR (Homo sapiens, UniProt P08913).
T2 construct: DYK (FLAG, DYKDDDDK) (N); host or cells: HEK293 (transient, Lipofectamine 3000)
T2 sequence (P08913 1-465): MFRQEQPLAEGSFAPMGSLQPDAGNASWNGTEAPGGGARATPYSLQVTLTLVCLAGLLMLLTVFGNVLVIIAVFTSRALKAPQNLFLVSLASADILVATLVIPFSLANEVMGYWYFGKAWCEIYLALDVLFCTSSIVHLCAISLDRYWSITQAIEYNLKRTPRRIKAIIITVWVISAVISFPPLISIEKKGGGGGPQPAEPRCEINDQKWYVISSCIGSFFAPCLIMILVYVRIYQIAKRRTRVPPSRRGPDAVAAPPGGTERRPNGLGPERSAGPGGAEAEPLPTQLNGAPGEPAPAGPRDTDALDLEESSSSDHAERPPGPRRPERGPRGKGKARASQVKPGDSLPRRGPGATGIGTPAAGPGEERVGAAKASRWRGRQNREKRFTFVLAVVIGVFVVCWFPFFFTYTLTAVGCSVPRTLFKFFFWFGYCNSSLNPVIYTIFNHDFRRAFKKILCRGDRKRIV
Nature of the data set: DMR in α2A-HEK293 (transient) cells. Type of data set: cell-based. As for the experimental part:
The cells were grown in DMEM (100 μL) media supplemented with FBS (10%), penicillin (100 U/mL) and streptomycin (100 μg/mL) in a humidified atmosphere at 37° C. in 5% CO2 for 1 day before proceeding for the DMR experiments. For gain of function studies of α2A ADR, parental HEK293 cells were transfected with pcDNA3.1(+)-N-DYK empty vector or with pcDNA3.1(+)-ADRA2A-N-DYK clone (clone id: OHu19050C-GenScript) using Lipofactamine 3000 Transfection kit-Invitrogen (Cat. L3000008). DMR studies were performed on transiently transfected cells after 2 days post transfection. Prior to run the DMR experiment, cells were washed with 1×HBSS buffer with HEPES (20 mM, pH 7.4) and allowed to temperature equilibrate for 1 h at room temperature in 100 μL of the same buffer. Basal DMR response were graphed for around 15 min to obtain a baseline read that defines the zero level and also ensures the signal is stable.

The test system of another data set is HEL92.1.7 cells. The experiment in a line: Dynamic mass redistribution (DMR) in HEL92.1.7 cells. Type of data set: cell-based, human. Particulars: increasing concentrations. As for the experimental part: as §1
Data set [3] is described as follows: Metabolism of phenylacetic acid after i.p. injection. Particulars: intraperitoneal (i.p.) injection in mice. Type of data set: in vivo.

Each structure is given as a SMILES string.

In the case of `COc1ccccc1OCCNCC(O)COc1cccc2[nH]c3ccccc3c12` (stereo not shown) [carvedilol], in data set [1], the “pro-thrombotic effect of PAGln on clot formation rate and occlusion time” value was “reversed by pretreatment of mice with carvedilol”.
Take `N[C@@H](Cc1ccccc1)C(=O)O` [phenylalanine]: in the data set on MEG01 cells (addition of ligand), the DMR response entry was “displayed no DMR response”.
For the compound `COC1(C2=NCCN2)COc2ccccc2O1` (stereo not shown) [RX821002], the “B-HT933-elicited DMR response after ADR inhibitor” value at α2B ADR and on α2A ADR was “attenuated by RX821002” throughout. Also, the “PAGln-induced DMR response after ADR inhibitor” value on α2B ADR (inhibitor 10 μM, 30 min) was “reversed”; on α2A ADR (inhibitor 10 μM, 30 min), “reversed”. Besides, in data set [2], the “PAGln induced hyperresponsiveness of platelet aggregation” value is listed as “attenuated the PAGln induced hyperresponsiveness”. For the same compound, in the data set with MEG01 cells (ATP 50 μM, inhibitor 10 μM), the “DMR response to ATP after ADR inhibitors” value is “remained unchanged”. The “DMR response of B-HT933 after ADR inhibitor” value in the data set on MEG01 cells (B-HT933 50 μM, inhibitor 10 μM) is reported as “appropriately inhibited”. Besides, the “PAGln-induced DMR response after ADR inhibitors” value in the data set on MEG01 cells (PAGln 100 μM, inhibitor 10 μM, 30 min) was “substantially reduced”.
On to `NC[C@H](O)c1ccc(O)c(O)c1` [norepinephrine], for which the DMR dose-response signal result in the data set with HEL92.1.7 cells was “like norepinephrine”. Further, the “DMR dose response curves” value in the data set on MEG01 cells (increasing concentrations) was “saturable and specific DMR dose response curves”.
`O=C(O)Cc1ccccc1` [phenylacetic acid]: the metabolic fate result in data set [3] was “predominantly metabolized into PAGly”.

The values above are taken from patent publication US20230091848A1, “DISEASE DETECTION AND TREATMENT BASED ON PHENYLACETYL GLUTAMINE LEVELS” (The Cleveland Clinic Foundation, priority 2020, published 2023).
